The target in test [1] is T1, PRKCH (Homo sapiens, UniProt P24723).
T1 construct: purchased Eurofins DiscoverX KINOMEscan
In words: DiscoverX KINOMEscan binding assay at 1 μM, PRKCH. Particulars: Compound Concentration 1000 nM, read-out: Percent Control. From the text: (§1) Supplement cells-12-00287-s001.zip/File S2. KinomeScan data for the CAMKK2 probe and negative control.xlsx, sheet "SGC-CAMKK2-1" | column: Percent Control

Test [2] has as its target T2, ABL1(Q252H)-nonphosphorylated (Homo sapiens, UniProt P00519, Q252H).
T2 construct: purchased Eurofins DiscoverX KINOMEscan
In words: KINOMEscan 1 μM, ABL1(Q252H)-nonphosphorylated. Format: binding. The note with it: 1000 nM; Entrez ABL1; read-out: Percent Control.
Source text: as §1

Test [3] deals with T3, MINK (Homo sapiens, UniProt Q8N4C8).
T3 construct: purchased Eurofins DiscoverX KINOMEscan
The experiment in a line: KINOMEscan 1 μM, MINK. Format: binding. Particulars: 1000 nM; Entrez MINK1; read-out: Percent Control.
Source text: as §1

Test [4] deals with T4, ABL1(F317I)-phosphorylated (Homo sapiens, UniProt P00519, F317I).
T4 construct: purchased Eurofins DiscoverX KINOMEscan
In words: KINOMEscan 1 μM, ABL1(F317I)-phosphorylated. Format: binding. The note with it: 1000 nM; Entrez ABL1; read-out: Percent Control.
Source text: as §1

Test [5] has as its target T5, FLT4 (Homo sapiens, UniProt P35916).
T5 construct: purchased Eurofins DiscoverX KINOMEscan
The experiment in a line: KINOMEscan 1 μM, FLT4. Format: binding. Particulars: 1000 nM; Entrez FLT4; read-out: Percent Control.
Source text: as §1

Test [6] deals with T6, CDC2L2 (Homo sapiens, UniProt Q9UQ88).
T6 construct: purchased Eurofins DiscoverX KINOMEscan
The experiment in a line: KINOMEscan 1 μM, CDC2L2. Format: binding. Particulars: 1000 nM; Entrez CDC2L2; read-out: Percent Control.
Source text: as §1

For test [7], the target named is T7, MUSK (Homo sapiens, UniProt O15146).
T7 construct: purchased Eurofins DiscoverX KINOMEscan
In words: KINOMEscan 1 μM, MUSK. Format: binding. The note with it: 1000 nM; Entrez MUSK; read-out: Percent Control.
Source text: as §1

The target of test [8] is T8, ICK (Homo sapiens, UniProt Q9UPZ9).
T8 construct: purchased Eurofins DiscoverX KINOMEscan
In words: KINOMEscan 1 μM, ICK. Format: binding. Particulars: 1000 nM; Entrez ICK; read-out: Percent Control.
Source text: as §1

Test [9] deals with T9, FGFR3(G697C) (Homo sapiens, UniProt P22607, G697C).
T9 construct: purchased Eurofins DiscoverX KINOMEscan
In words: KINOMEscan 1 μM, FGFR3(G697C). Format: binding. The note with it: 1000 nM; Entrez FGFR3; read-out: Percent Control.
Source text: as §1

The target in test [10] is T10, CIT (Homo sapiens, UniProt O14578).
T10 construct: purchased Eurofins DiscoverX KINOMEscan
The experiment in a line: KINOMEscan 1 μM, CIT. Format: binding. Particulars: 1000 nM; Entrez CIT; read-out: Percent Control.
Source text: as §1

For test [11], the target named is T11, HIPK1 (Homo sapiens, UniProt Q86Z02).
T11 construct: purchased Eurofins DiscoverX KINOMEscan
In words: KINOMEscan 1 μM, HIPK1. Format: binding. Particulars: 1000 nM; Entrez HIPK1; read-out: Percent Control.
Source text: as §1

Test [12] deals with T12, FLT3(R834Q) (Homo sapiens, UniProt P36888, R834Q).
T12 construct: purchased Eurofins DiscoverX KINOMEscan
The experiment in a line: KINOMEscan 1 μM, FLT3(R834Q). Particulars: 1000 nM; Entrez FLT3; read-out: Percent Control. Format: binding.
Source text: as §1

Test [13] concerns the target T13, ASK1 (Homo sapiens, UniProt Q99683).
T13 construct: purchased Eurofins DiscoverX KINOMEscan
The experiment in a line: KINOMEscan 1 μM, ASK1. Format: binding. The note with it: 1000 nM; Entrez MAP3K5; read-out: Percent Control.
Source text: as §1

Test [14] has as its target T14, PAK2 (Homo sapiens, UniProt Q13177).
T14 construct: purchased Eurofins DiscoverX KINOMEscan
The experiment in a line: KINOMEscan 1 μM, PAK2. Format: binding. The note with it: 1000 nM; Entrez PAK2; read-out: Percent Control.
Source text: as §1

Test [15] has as its system FLT3(ITD,D835V). The experiment in a line: KINOMEscan 1 μM, FLT3(ITD,D835V). Format: binding, human. Particulars: 1000 nM; Entrez FLT3.
Source text: as §1

The target of test [16] is T15, GAK (Homo sapiens, UniProt O14976).
T15 construct: purchased Eurofins DiscoverX KINOMEscan
In words: KINOMEscan 1 μM, GAK. Format: binding. Particulars: 1000 nM; Entrez GAK; read-out: Percent Control.
Source text: as §1

Test [17] addresses T16, MAP3K2 (Homo sapiens, UniProt Q9Y2U5).
T16 construct: purchased Eurofins DiscoverX KINOMEscan
In words: KINOMEscan 1 μM, MAP3K2. Format: binding. The note with it: 1000 nM; Entrez MAP3K2; read-out: Percent Control.
Source text: as §1

Test [18] concerns the target T17, BRK (Homo sapiens, UniProt Q13882).
T17 construct: purchased Eurofins DiscoverX KINOMEscan
In words: KINOMEscan 1 μM, BRK. The note with it: 1000 nM; Entrez PTK6; read-out: Percent Control. Format: binding.
Source text: as §1

The target of test [19] is T18, PIK4CB (Homo sapiens, UniProt Q9UBF8).
T18 construct: purchased Eurofins DiscoverX KINOMEscan
In words: DiscoverX KINOMEscan binding assay at 1 μM, PIK4CB. Particulars: PIK4CB (PI4KB); Compound Concentration 1000 nM; read-out: Percent Control.
Source text: as §1

The target in test [20] is T19, MAP3K1 (Homo sapiens, UniProt Q13233).
T19 construct: purchased Eurofins DiscoverX KINOMEscan
In words: KINOMEscan at 1 μM, MAP3K1. Particulars: 1000 nM, read-out: Percent Control. Format: binding. From the text: (§2) Supplement cells-12-00287-s001.zip/File S2. KinomeScan data for the CAMKK2 probe and negative control.xlsx, sheet "SGC-CAMKK2-1N" | column: Percent Control

In test [21] the target is T20, EGFR(L747-E749del, A750P) (Homo sapiens, UniProt P00533, A750P/DEL747-749).
T20 construct: purchased Eurofins DiscoverX KINOMEscan
The experiment in a line: KINOMEscan binding assay at 1 μM, EGFR(L747-E749del, A750P). Particulars: Compound Concentration 1000 nM; read-out: Percent Control.
Source text: as §2

Test [22] addresses T3, MINK. The experiment in a line: KINOMEscan at 1 μM, MINK. Format: binding. The note with it: 1000 nM, read-out: Percent Control.
Source text: as §2

Test [23] has as its target T21, PLK3 (Homo sapiens, UniProt Q9H4B4).
T21 construct: purchased Eurofins DiscoverX KINOMEscan
In words: KINOMEscan at 1 μM, PLK3. Format: binding. Particulars: 1000 nM, read-out: Percent Control.
Source text: as §2

The target in test [24] is T22, RAF1 (Homo sapiens, UniProt P04049).
T22 construct: purchased Eurofins DiscoverX KINOMEscan
In words: KINOMEscan at 1 μM, RAF1. Format: binding. Particulars: 1000 nM, read-out: Percent Control.
Source text: as §2

The target in test [25] is T23, PIP5K1A (Homo sapiens, UniProt Q99755).
T23 construct: purchased Eurofins DiscoverX KINOMEscan
The experiment in a line: KINOMEscan at 1 μM, PIP5K1A. Format: binding. The note with it: 1000 nM, read-out: Percent Control.
Source text: as §2

The target in test [26] is T24, PRKD3 (Homo sapiens, UniProt O94806).
T24 construct: purchased Eurofins DiscoverX KINOMEscan
In words: KINOMEscan at 1 μM, PRKD3. Format: binding. The note with it: 1000 nM, read-out: Percent Control.
Source text: as §2

For test [27], the target named is T25, PIK3CA(M1043I) (Homo sapiens, UniProt P42336, M1043I).
T25 construct: purchased Eurofins DiscoverX KINOMEscan
The experiment in a line: KINOMEscan binding assay at 1 μM, PIK3CA(M1043I). The note with it: Compound Concentration 1000 nM; read-out: Percent Control.
Source text: as §2

Test [28] concerns the target T26, PFPK5(P.falciparum) (Plasmodium falciparum, UniProt P61075).
T26 construct: purchased Eurofins DiscoverX KINOMEscan
In words: KINOMEscan at 1 μM, PFPK5(P.falciparum). Particulars: 1000 nM, read-out: Percent Control. Format: binding.
Source text: as §2

Test [29] has as its target T4, ABL1(F317I)-phosphorylated. The experiment in a line: KINOMEscan at 1 μM, ABL1(F317I)-phosphorylated. Particulars: 1000 nM, read-out: Percent Control. Format: binding.
Source text: as §2

The target in test [30] is T1, PRKCH. In words: KINOMEscan at 1 μM, PRKCH. The note with it: 1000 nM, read-out: Percent Control. Format: binding.
Source text: as §2

The target in test [31] is T27, MEK5 (Homo sapiens, UniProt Q13163).
T27 construct: purchased Eurofins DiscoverX KINOMEscan
The experiment in a line: KINOMEscan at 1 μM, MEK5. Format: binding. Particulars: 1000 nM, read-out: Percent Control.
Source text: as §2

Test [32] concerns the target T28, MET(M1250T) (Homo sapiens, UniProt P08581, M1250T).
T28 construct: purchased Eurofins DiscoverX KINOMEscan
The experiment in a line: KINOMEscan binding assay at 1 μM, MET(M1250T). The note with it: Compound Concentration 1000 nM; read-out: Percent Control.
Source text: as §2

SMILES strings stand for the structures.

T1 sequence (P24723 whole entry): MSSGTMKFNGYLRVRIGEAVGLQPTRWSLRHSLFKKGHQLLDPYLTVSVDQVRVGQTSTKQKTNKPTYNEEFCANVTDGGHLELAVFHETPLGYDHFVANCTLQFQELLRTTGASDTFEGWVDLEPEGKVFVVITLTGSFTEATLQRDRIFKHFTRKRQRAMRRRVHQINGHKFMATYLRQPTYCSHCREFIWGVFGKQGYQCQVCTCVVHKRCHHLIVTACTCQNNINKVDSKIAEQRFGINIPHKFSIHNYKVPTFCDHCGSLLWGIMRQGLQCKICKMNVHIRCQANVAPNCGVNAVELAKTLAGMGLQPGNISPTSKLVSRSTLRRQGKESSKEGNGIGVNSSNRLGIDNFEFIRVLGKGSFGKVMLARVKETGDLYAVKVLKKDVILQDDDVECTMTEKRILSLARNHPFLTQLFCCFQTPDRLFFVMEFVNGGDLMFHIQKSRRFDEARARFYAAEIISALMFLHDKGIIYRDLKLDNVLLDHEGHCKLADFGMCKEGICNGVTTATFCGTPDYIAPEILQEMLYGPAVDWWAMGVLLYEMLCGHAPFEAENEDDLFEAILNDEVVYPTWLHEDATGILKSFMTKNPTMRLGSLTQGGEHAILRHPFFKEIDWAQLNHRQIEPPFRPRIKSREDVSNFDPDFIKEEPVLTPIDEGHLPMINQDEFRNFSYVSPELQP
T3 sequence (Q8N4C8 whole entry): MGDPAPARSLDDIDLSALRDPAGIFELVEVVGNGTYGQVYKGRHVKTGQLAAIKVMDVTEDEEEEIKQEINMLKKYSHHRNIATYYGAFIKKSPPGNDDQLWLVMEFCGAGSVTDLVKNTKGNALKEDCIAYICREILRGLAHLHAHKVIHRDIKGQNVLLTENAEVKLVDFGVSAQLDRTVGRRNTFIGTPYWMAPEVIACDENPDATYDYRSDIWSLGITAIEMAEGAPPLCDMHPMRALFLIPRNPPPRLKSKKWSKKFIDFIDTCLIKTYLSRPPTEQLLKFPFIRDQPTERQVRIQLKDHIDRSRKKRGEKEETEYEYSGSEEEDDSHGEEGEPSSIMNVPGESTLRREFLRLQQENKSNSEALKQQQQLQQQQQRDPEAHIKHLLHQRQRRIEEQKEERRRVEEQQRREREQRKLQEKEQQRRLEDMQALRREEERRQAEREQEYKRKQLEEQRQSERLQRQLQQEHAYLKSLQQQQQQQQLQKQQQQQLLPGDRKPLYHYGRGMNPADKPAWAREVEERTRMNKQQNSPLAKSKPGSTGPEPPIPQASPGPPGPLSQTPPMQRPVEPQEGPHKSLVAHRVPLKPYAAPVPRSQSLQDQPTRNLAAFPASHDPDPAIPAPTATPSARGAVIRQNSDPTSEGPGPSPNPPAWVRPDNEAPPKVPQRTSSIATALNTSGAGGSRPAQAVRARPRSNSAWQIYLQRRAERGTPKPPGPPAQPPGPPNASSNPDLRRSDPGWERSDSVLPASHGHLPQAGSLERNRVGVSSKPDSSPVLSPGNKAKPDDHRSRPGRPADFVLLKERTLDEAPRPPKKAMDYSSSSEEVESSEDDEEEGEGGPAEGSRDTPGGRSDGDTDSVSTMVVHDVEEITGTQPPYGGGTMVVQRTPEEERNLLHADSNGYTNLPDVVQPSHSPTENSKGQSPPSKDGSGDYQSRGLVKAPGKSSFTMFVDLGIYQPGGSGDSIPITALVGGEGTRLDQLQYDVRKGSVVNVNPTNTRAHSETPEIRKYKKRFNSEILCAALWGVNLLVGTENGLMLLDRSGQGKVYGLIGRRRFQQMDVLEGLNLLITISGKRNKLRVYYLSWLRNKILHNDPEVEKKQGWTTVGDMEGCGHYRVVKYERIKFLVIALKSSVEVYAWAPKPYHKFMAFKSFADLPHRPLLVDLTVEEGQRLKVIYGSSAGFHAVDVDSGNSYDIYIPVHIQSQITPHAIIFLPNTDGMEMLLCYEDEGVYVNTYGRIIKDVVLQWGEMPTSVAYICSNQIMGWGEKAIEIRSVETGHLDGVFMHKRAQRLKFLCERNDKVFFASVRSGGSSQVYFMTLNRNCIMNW
T9 sequence (P22607 23-806 G697C): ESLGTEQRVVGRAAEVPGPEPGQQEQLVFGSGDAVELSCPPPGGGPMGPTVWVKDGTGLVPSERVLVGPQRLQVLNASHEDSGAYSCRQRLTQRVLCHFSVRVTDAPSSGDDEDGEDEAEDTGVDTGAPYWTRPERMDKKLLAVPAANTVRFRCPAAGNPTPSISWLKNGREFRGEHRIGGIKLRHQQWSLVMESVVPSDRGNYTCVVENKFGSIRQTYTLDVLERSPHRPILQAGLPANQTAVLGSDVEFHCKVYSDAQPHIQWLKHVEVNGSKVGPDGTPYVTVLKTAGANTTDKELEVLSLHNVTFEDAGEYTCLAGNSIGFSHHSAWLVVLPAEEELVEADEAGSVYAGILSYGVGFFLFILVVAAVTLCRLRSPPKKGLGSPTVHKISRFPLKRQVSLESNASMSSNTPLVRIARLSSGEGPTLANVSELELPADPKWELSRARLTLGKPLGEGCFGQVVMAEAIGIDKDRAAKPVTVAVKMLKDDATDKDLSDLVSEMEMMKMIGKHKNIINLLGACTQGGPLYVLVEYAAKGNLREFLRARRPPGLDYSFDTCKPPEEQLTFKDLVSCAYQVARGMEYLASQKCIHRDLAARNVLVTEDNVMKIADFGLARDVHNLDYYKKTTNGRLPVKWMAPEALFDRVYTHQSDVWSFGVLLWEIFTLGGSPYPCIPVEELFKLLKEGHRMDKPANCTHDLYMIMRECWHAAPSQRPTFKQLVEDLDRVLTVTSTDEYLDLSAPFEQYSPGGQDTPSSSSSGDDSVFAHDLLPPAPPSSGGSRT
T17 sequence (Q13882 whole entry): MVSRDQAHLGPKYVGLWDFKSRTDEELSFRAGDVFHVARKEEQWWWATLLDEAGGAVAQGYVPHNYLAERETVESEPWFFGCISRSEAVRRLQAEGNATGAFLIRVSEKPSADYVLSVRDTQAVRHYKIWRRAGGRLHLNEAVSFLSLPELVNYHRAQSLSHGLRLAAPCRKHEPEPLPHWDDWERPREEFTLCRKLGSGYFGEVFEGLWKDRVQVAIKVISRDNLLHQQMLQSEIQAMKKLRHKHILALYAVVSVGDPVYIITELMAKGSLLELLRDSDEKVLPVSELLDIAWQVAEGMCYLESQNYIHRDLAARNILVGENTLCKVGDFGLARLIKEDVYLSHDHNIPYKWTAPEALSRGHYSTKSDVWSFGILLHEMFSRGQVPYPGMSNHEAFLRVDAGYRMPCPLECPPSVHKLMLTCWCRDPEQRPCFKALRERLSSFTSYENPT
T26 sequence (P61075 whole entry): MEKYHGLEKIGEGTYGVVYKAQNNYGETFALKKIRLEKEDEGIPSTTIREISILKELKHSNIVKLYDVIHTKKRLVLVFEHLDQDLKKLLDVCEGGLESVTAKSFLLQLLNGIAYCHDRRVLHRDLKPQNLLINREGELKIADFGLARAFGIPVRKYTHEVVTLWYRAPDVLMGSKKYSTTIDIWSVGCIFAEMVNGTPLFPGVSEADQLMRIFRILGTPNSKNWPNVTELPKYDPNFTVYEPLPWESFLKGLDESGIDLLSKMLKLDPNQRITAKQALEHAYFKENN
T27 sequence (Q13163 whole entry): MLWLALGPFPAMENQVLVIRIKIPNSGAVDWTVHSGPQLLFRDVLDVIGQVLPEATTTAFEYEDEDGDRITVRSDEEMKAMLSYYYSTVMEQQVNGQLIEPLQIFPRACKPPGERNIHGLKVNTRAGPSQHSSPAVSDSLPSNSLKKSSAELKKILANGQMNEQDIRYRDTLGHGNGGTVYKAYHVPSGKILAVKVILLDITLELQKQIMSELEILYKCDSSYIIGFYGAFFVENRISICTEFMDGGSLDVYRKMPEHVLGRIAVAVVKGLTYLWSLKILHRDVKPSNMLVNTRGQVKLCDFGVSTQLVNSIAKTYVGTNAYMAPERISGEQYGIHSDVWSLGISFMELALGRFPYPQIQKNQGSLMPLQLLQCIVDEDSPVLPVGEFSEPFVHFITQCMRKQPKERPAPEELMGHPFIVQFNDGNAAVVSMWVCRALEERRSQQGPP
T7 sequence (O15146 24-869): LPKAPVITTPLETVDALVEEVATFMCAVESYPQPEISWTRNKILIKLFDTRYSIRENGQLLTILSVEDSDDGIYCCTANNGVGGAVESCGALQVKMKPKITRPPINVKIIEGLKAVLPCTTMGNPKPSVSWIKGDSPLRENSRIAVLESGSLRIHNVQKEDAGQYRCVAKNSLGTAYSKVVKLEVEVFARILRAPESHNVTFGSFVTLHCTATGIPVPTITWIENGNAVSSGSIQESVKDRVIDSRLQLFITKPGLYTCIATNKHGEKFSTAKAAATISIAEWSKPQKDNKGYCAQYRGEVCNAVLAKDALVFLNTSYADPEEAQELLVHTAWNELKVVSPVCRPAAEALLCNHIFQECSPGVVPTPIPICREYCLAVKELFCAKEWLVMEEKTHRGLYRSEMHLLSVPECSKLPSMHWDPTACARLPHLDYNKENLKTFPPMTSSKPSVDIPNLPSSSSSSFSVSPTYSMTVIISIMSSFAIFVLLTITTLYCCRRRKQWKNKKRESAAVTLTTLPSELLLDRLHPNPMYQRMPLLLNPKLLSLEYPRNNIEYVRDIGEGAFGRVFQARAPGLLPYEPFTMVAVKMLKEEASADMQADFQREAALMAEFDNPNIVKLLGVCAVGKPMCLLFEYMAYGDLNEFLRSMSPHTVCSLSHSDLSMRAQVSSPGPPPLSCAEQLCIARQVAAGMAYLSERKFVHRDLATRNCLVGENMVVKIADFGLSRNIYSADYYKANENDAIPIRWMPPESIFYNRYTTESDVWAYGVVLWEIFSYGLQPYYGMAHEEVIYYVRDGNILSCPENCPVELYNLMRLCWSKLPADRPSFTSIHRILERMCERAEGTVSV

On to `Cc1cccc(-c2cnc3occ(-c4ccc(C(=O)O)c(C5CCCC5)c4)c3c2)c1` [SGC-CAMKK2-1 (YL-36)], for which the remaining binding at 1 µM in test [1] was determined as 100%; in test [2], 100%; in test [3], 100%; in test [4], 100%; in test [5], 96%; in test [6], 84%. Also, the remaining binding at 1 µM in test [7] is 84%; in test [8], 100%; in test [9] it was 100%; in [10] it was 100%; in test [11], 90%; in [12] it was 100%. For the same molecule, the remaining binding at 1 µM in test [13] is 100%; in test [14], 55%; in test [16], 80%; in test [17], 100%; in test [18] it was 100%; in [19] it was 100%. The “Percent Control” value in test [15] is listed as 88%.

With `O=C(O)c1ccc(-c2coc3ncc(-c4ccccc4)cc23)cc1Cl` [SGC-CAMKK2-1N (UNC-YL-83)], the remaining binding at 1 µM was determined as 74% in [20]; 100% in test [21]; 95% in test [22]; 91% in test [23]; 79% in test [24]; 87% in test [25]. Further, the remaining binding at 1 µM in test [26] was found to be 93%; in [27], 100%; in [28] it was 69%; in test [29], 90%; in [30], 94%; in [31], 67%. Moreover, the remaining binding at 1 µM in [32] amounted to 100%.
